Values of other authors as cited in patent US20240415829A1, “METHODS AND COMPOSITIONS FOR THE TREATMENT OF DRUG OVERDOSE” (priority 2023, published 2024).

Assays:
[1] = xylazine 0.15 mg/kg, sheep 58-69 kg
[2] = human clinical trials
[3] = results from other studies; individuals with OUD, tobacco use disorder, AUD

Row | SMILES | sedation, respiration, blood pressure and heart rate effects [1] | adverse effects leading to termination of human trials [2] | doses supported for safe use in humans [3]
1 | Cc1cccc(C)c1NC1=NCCCS1 [xylazine] | significant sedation/decreased respiration and decreased blood pressure/heart rate | severe hypotension and central nervous system (CNS) depressant effects | –
2 | COC(=O)[C@@H]1[C@H]2C[C@H]3c4[nH]c5ccccc5c4CCN3C[C@@H]2CC[C@@H]1O [yohimbine] | – | – | up to 60 mg
